From patent publication US20080181971A1, “Combination Cancer Treatments Comprising Elsamitrucin and Other Agents” (priority 2007, published 2008)

How the values were obtained:
[1] = i.p., qd x5; cited from earlier work
[2] = test system: HCT116 human colon carcinoma; experiment: HCT116-e256 study: tumor growth delay of subcutaneous HCT116 xenografts in nude mice; type: in vivo; details: for Median TTE (time to endpoint): endpoint 2000 mm^3, control 25.1; for tumor growth delay (TGD): percent of median TTE of untreated group
Procedure: Tumors were measured twice weekly during the experiment, and each animal was euthanized when its tumor reached the endpoint volume of 2000 mm^3 or on the last day of the study (Day 59), whichever came first.
Treatment outcome was assessed by tumor growth delay (TGD), defined as the difference in median time to endpoint tumor burden in a treatment group compared to a control group.
a. Mice. […] The mice were housed on irradiated ALPHA-Dri® Bed-O'Cobs® Laboratory Animal Bedding in static microisolators on a 12-hour light cycle at 21-22° C. (70-72° F.) and 40-60% humidity. Testing facilities complied with the recommendations of the Guide for Care and Use of Laboratory Animals with respect to restraint, husbandry, surgical procedures, feed and fluid regulation, and veterinary care. The animal care and use program at the testing facility is accredited by AAALAC, which assures compliance with accepted standards for the used and care of laboratory animals.
b. Tumor Implantation. […] On the day of tumor implant, the cells were trypsinized, harvested by centrifugation and resuspended in phosphate buffered saline. Each mouse received 5×10^6 HCT116 tumor cells in 0.2 mL implanted subcutaneously in the right flank, and tumor growth was monitored. […] Tumor volume was calculated using the formula: […]
c. Therapeutic Agents. […] The 0.5 mg/mL dosing solution was prepared by 2-fold dilution in distilled water. Both solutions were prepared fresh for each dose administered.
Dosing solutions of 0.75 and 1.5 mg/mL were formulated fresh for each dose by diluting the stock solution ten-fold with D5W.
d. Treatment Plan. […] Note the routes of administration and schedules detailed in Table 10. All doses were given in volumes of 0.2 mL per 20 g of body weight (10 mL/kg), and were scaled to the body weight of the animal.
e. Endpoint. Tumors were measured twice weekly using calipers. Each animal was euthanized when its tumor reached the endpoint size of 2000 mm^3 or at the conclusion of the study on Day 59, whichever came first. The time to endpoint (TTE) for each mouse was calculated from the following equation: […]
where b is the intercept and m is the slope of the line obtained by linear regression of a log-transformed tumor growth data set. The data set was comprised of the first observation that exceeded the study endpoint volume and the three consecutive observations that immediately preceded the attainment of the endpoint volume. […] Animals classified as NTR (non-treatment-related) deaths due to accident (NTRa) or due to unknown causes (NTRu) were excluded from TTE calculations (and all further analyses). Animals classified as TR (treatment-related) deaths or NTRm (non-treatment-related death due to metastasis) were assigned a TTE value equal to the day of death.
Treatment outcome was evaluated by tumor growth delay (TGD), which is defined as the increase in the median time to endpoint (TTE) in a treatment group compared to the control group:
Treatment may cause partial regression (PR) or complete regression (CR) of the tumor in an animal. […] An animal with a CR response at the termination of a study is additionally classified as a tumor-free survivor (TFS). Regression responses were monitored and recorded.
g. Statistical and Graphical Analyses. The Logrank test was used to analyze the significance of the differences between the TTE values of treated and control groups. Two-tailed statistical analyses were conducted at significance level P=0.05.
Median tumor growth curves show group median tumor volumes as a function of time. When an animal exited the study due to tumor size, the final tumor volume recorded for the animal was included with the data used to calculate the group median tumor volume at subsequent time points. Curves were truncated after 50% of the animals in a group had exited the study, or after the second TR death in a group, whichever came first (see the exception in FIG. 8).

[3] = HCT116-e256 study: toxicity (body weight, treatment-related deaths, clinical signs); type: in vivo, nude mice
From the text: f. Toxicity. Animals were weighed daily for the first five days of the study and then twice weekly. […] Acceptable toxicity is defined as a group mean body-weight loss of less than 20% during the study and not more than one treatment-related (TR) death among ten treated animals. […] A death was classified as TR if attributable to treatment side effects as evidenced by clinical signs and/or necropsy, or may be classified as TR if due to unknown causes during the dosing period or within 10 days of the last dose. A death was classified as an NTR if there is no evidence that death was related to treatment side effects.

[4] = test system: HCT116 human colon carcinoma; details: i.v., qod x5; cited from earlier work
[5] = Groups 2,4,6,8,10: elsamitrucin 10 mg/kg ip q4d x3, paclitaxel 15 mg/kg iv qod x5, cisplatin 2.7 mg/kg ip qd x5
[6] = Groups 3,5,7,9,11: elsamitrucin 5 mg/kg ip q4d x3, paclitaxel 7.5 mg/kg iv qod x5, cisplatin […] ip qd x5

| SMILES | % TGD = [(T − C)/C] × 100 [2, 5] [%] | No. of CR (complete regression) [2, 5] | No. of PR (partial regression) [2, 5] | No. of TFS (tumor free survivor) [2, 5] | T − C (difference between median TTE of treated versus control group) [2, 5] [days] | Median TTE (time to endpoint) [2, 5] [days] | % TGD = [(T − C)/C] × 100 [2, 6] [%] | No. of CR (complete regression) [2, 6] | No. of PR (partial regression) [2, 6] | No. of TFS (tumor free survivor) [2, 6] | T − C (difference between median TTE of treated versus control group) [2, 6] [days] | Median TTE (time to endpoint) [2, 6] [days] | Day of Mean BW Nadir [3, 5] [days] | Mean BW Nadir (lowest group mean body weight, as % change from Day 1) [3, 5] [%] | No. of NTR (non-treatment-related death) [3, 5] | No. of TR (treatment-related death) [3, 5] | No. of NTR (non-treatment-related death) [3, 6] | No. of TR (treatment-related death) [3, 6] | other results |
| --- | --- | --- | --- | --- | --- | --- | --- | --- | --- | --- | --- | --- | --- | --- | --- | --- | --- | --- | --- |
| N.N.[Cl][Pt][Cl] [Cisplatin, cisplatin] | 23 | 0 | 0 | 0 | 5.7 | 30.8 | 1 | 0 | 0 | 0 | 0.2 | 25.3 | – | – | – | – | – | – | MTD revealed in previous studies [1]: 2.7 mg/kg; tumor growth delay (TGD) ([2]; higher dose level): 23%; tumor growth delay (TGD) ([2]; lower dose level): 1% |
| CO[C@@H]1[C@@H](N)[C@@H](O[C@H]2[C@H](Oc3cccc4c(O)c5c(=O)oc6ccc(C)c7c(=O)oc(c34)c5c67)O[C@H](C)[C@H](O)[C@]2(C)O)O[C@H](C)[C@@H]1O [Elsamitrucin, benzo(h)(1)benzopyrano(5,4,3-cde)(1)ebnzopyran-5,12-dione,10((2-O-(2-amino-2,6-dideoxy-3-O-methyl-alpha-D-galactopyranosyl)-6-deoxy-3-C-methyl-beta-D-galactopyranosyl)oxy)-6-hydroxy-1-methyl] | 8 | 0 | 0 | 0 | 2.0 | 27.1 | 6 | 0 | 0 | 0 | 1.4 | 26.5 | 7 | −8.4 | 0 | 0 | 0 | 0 | Day of Mean BW Nadir [3, 6]: 7 days; Mean BW Nadir (lowest group mean body weight, as % change from Day 1) ([3]; Groups 3,5,7,9,11: elsamitrucin 5 mg/kg ip q4d x3, paclitaxel 7.5 mg/kg iv qod x5, cisplatin […] ip qd x5, — indicates no decrease in mean body weight was observed): −4.8%; group body weight loss ([3]; elsamitrucin 10 mg/kg, in monotherapy and in the combinations): modest group BW losses; MTV (n) Day 59 (median tumor volume) ([2]; Groups 2,4,6,8,10: elsamitrucin 10 mg/kg ip q4d x3, paclitaxel 15 mg/kg iv qod x5, animals remaining on Day 59, n in brackets): 88 (1) mm^3; tumor regressions ([2]; elsamitrucin monotherapy groups, 10 or 5 mg/kg i.p. q4d x3): No tumor regressions |
| CC(=O)O[C@H]1C(=O)[C@@]2(C)[C@H]([C@H](OC(=O)c3ccccc3)[C@]3(O)C[C@H](OC(=O)[C@H](O)[C@@H](NC(=O)c4ccccc4)c4ccccc4)C(C)=C1C3(C)C)[C@]1(OC(C)=O)CO[C@@H]1C[C@@H]2O [Paclitaxel, paclitaxel] | 59 | 0 | 1 | 0 | 14.7 | 39.8 | 22 | 0 | 0 | 0 | 5.6 | 30.7 | 7 | −4.6 | 0 | 0 | 0 | 0 | optimum therapeutic dose identified in previous studies [4]: 30 mg/kg; partial regression response ([2]; higher dose level, animals of ten): 1/10 |
